Columns and labels:
Histamine H3 receptor [1] = molecular target: T1, Histamine H3 receptor (Homo sapiens, UniProt Q9Y5N1); assay: Binding affinity for human histamine H3 receptor
[2] = molecular target: Histamine H3 receptor (Rattus norvegicus) (UniProt Q9QYN8); assay: Ex-vivo effective dose required for rat histamine H3 receptor occupancy by the compound using [3H]R-alpha-methylhistamine upon subcutaneous administration
Histamine H3 receptor [3] = molecular target: T1, Histamine H3 receptor; assay: Compound was tested for its binding affinity against human histamine H3 receptor
[4] = Oral bioavailability in rat; format: ADME, organism-based; settings: in vivo, read-out: Bioavailabiility
[5] = Half life in rat was tested; format: ADME, organism-based; settings: in vivo
Histamine H3 receptor [6] = molecular target: T2, Histamine H3 receptor (Rattus norvegicus, UniProt Q9QYN8); assay: Antagonist activity for rat histamine H3 receptor was determined; format: functional; settings: read-out: pA2 (converted)
T2 sequence (Q9QYN8 whole entry): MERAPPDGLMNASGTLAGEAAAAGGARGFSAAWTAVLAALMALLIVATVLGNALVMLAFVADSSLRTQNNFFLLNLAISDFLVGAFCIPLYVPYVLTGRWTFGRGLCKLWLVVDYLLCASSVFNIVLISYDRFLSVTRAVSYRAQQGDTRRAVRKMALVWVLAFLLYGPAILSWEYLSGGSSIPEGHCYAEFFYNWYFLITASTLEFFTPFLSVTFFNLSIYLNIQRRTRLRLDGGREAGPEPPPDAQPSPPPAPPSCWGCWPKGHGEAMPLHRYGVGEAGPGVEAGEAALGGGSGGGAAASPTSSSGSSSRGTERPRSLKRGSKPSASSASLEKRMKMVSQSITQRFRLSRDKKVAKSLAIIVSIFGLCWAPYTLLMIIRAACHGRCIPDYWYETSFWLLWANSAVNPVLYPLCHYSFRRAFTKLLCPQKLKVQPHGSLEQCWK

Histamine H3 receptor [7] = molecular target: T2, Histamine H3 receptor; assay: Compound was tested for its binding affinity for rat histamine H3 receptor

T1 sequence (Q9Y5N1 whole entry): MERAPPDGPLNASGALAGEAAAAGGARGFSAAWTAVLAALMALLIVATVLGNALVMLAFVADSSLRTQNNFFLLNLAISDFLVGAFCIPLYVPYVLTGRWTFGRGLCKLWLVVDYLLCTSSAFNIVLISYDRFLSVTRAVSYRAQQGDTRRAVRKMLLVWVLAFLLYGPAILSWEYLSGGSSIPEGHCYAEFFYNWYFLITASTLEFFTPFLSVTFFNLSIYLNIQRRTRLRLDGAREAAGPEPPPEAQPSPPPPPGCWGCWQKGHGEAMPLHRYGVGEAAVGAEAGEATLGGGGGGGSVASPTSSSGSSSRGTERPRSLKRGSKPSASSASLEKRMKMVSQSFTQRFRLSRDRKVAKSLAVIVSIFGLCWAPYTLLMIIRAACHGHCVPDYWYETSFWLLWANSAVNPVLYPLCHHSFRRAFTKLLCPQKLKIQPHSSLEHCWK
Chain of Histamine H3 receptor (Rattus norvegicus) (Q9QYN8 whole entry): as the sequence (Q9QYN8 whole entry) above

`Cc1cccn2cc(-c3ccc(NC(=O)CCN4CCCCC4)cc3)nc12` gave a Ki (Histamine H3 receptor [1]) of 0.3 µM.

Work on `Cc1cccn2cc(-c3ccc(NS(=O)(=O)CCCN4CCCCC4)cc3)nc12` yielded a Ki (Histamine H3 receptor [1]) of 0.5 µM.

`Cc1ccn2cc(-c3ccc(OCCCN4CCCCCC4)cc3)nc2c1` showed a Ki (Histamine H3 receptor [1]) of 0.006 µM.

`Cc1ccn2cc(-c3ccc(C#CCCN4CCCCC4)cc3)nc2c1` gave a Ki (Histamine H3 receptor [1]) of 0.007 µM.

In the case of `Cc1ccn2cc(-c3ccc(/C=C/CCN4CCCCC4)cc3)nc2c1`, the Ki (Histamine H3 receptor [1]) is reported as 0.022 µM.

In the case of `Cc1cccn2cc(-c3ccc(NCCCN4CCCCC4)cc3)nc12`, the Ki (Histamine H3 receptor [1]) is reported as 0.015 µM.

`Cc1cccn2cc(-c3ccc(OCCCN4CCOCC4)cc3)nc12` showed a Ki (Histamine H3 receptor [1]) of 0.08 µM.

Work on `Cc1cccn2cc(-c3ccc(OCCCN4CCCCC4)cc3)nc12` yielded a Ki (Histamine H3 receptor [1]) of 0.003 µM.

Work on `Cc1ccn2cc(-c3ccc(CCCCN4CCCCC4)cc3)nc2c1` yielded a Ki (Histamine H3 receptor [1]) of 0.017 µM.

With `S=C(NC1CCCCC1)N1CCC(c2cnc[nH]2)CC1` the ED50 [2] was 2 mg/kg.

With `CCCCN(CCCC)CCCOc1ccc(-c2nc3c(C)cccn3c2C)cc1` the Ki (Histamine H3 receptor [1]) was 0.87 µM.

`Cc1ccn2cc(-c3ccc(OCCCN4CCCCC4)cc3C)nc2c1` showed a Ki (Histamine H3 receptor [1]) of 0.002 µM.

Molecule `Cc1ccn2cc(-c3ccc(OCCCN4CCCC4)cc3)nc2c1` has a Ki (Histamine H3 receptor [1]) of 0.005 µM.

`Cc1cc(-c2cn3ccccc3n2)ccc1OCCCN1CCCCC1` gave a Ki (Histamine H3 receptor [1]) of 0.028 µM.

`c1ccn2cc(-c3ccc(OCCCN4CCCCC4)cc3)nc2c1` showed a Ki (Histamine H3 receptor [1]) of 0.006 µM.

Molecule `CCCCN(CCCC)CCCOc1ccc(-c2cn3cccc(C)c3n2)cc1` has a Ki (Histamine H3 receptor [3]) of 4 µM.

In the case of `COc1cc(-c2cn3ccc(C)cc3n2)ccc1OCCCN1CCCCC1`, the Ki (Histamine H3 receptor [1]) is reported as 0.069 µM.

With `Cc1ccn2cc(-c3ccc(OCCCN4CCCCC4)cc3)nc2c1` the bioavailability [4] was 57%, the half-life [5] was 5.2 h and the ED50 [2] was 0.2 mg/kg. It also gave a Kb (Histamine H3 receptor [6]) of 0.00468 µM and a Ki (Histamine H3 receptor [7]) of 0.01 µM.

In the case of `Cc1cccn2cc(-c3ccc(OCCCN(C)C)cc3)nc12`, the Ki (Histamine H3 receptor [1]) is reported as 0.013 µM.

Work on `CCCN(CCC)CCCOc1ccc(-c2cn3cccc(C)c3n2)cc1` yielded a Ki (Histamine H3 receptor [1]) of 0.043 µM.

`Cc1cccn2cc(-c3ccc(OCCCn4ccnc4)cc3)nc12` gave a Ki (Histamine H3 receptor [1]) of 1 µM.

`CCCCN(CCCC)CCCOc1ccc(-c2cn3cccc([N+](=O)[O-])c3n2)cc1` gave a Ki (Histamine H3 receptor [1]) of 11 µM.

For `Cc1cccn2cc(-c3ccc(OCCCN(C(C)c4ccccc4)C(C)c4ccccc4)cc3)nc12` (configuration not stated), the Ki (Histamine H3 receptor [1]) was 4 µM.
